Assay results from patent US9617258B2, “Pyrrolo[2,3-d]pyrimidinyl, pyrrolo[2,3-b]pyrazinyl and pyrrolo[2,3-d]pyridinyl acrylamides” (Pfizer Inc., priority 2013, dated 2017).

Assay: Stability of JAK3 covalent inhibitors in human whole blood;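 further: parent compound remaining over incubation time quantified by LC-MS/MS as peak area ratio against an internal standard, using pooled K2-EDTA blood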
Type: in vitro ADME
Conditions: both sexes, whole blood, 37° C., read-out: Human blood stability t1/2
Excerpt: Stability of JAK3 Covalent Inhibitors in Rat and Human Whole Blood
Rat blood was collected from 3 male Sprague-Dawley rats (200-250 g, Charles River Laboratories) and pooled for each study. Human blood was collected from one male and one female healthy subjects at the Occupational Health & Wellness Center at Pfizer, Groton, CT and pooled for each study. Both rat and human blood was collected freshly into K2-EDTA tubes and kept on ice. An aliquot of the blood was transferred to microtubes and pre-warmed for 10 min at 37° C. using a heat block. […] An aliquot of the incubation mixture was removed at designated time points during the course of the incubation, mixed with an aliquot of acetonitrile containing an internal standard, vortexed and centrifuged. The resulting supernatants were removed and subjected to LC-MS/MS analyses to determine parent compound concentrations. Peak area ratios of the parent compound vs the internal standard were used to determine the % of parent compound remaining vs incubation time.

Row | SMILES | half-life at 1 μM
1 | C=CC(=O)N1CCC(Oc2cnc3[nH]cc(-c4ccnc(C)c4)c3n2)CC1 [Example 220, 1-(4-{[7-(2-methylpyridin-4-yl)-5H-pyrrolo[2,3-b]pyrazin-2-yl]oxy}piperidin-1-yl)prop-2-en-1-one] | > 360 min
2 | C=CC(=O)N1CCC(Nc2cnc3[nH]cc(C(=O)NC4CCCC4(F)F)c3n2)CC1 (stereo not drawn) [Example 234, 2-[(1-acryloylpiperidin-4-yl)amino]-N-(2,2-difluorocyclopentyl)-5H-pyrrolo[2,3-b]pyrazine-7-carboxamide] | 296 min
3 | C=CC(=O)N1CCC(Nc2cnc3[nH]cc(C(=O)N[C@@H]4CCC[C@H]4F)c3n2)CC1 [Example 237, 2-[(1-acryloylpiperidin-4-yl)amino]-N-[(1R,2R)-2-fluorocyclopentyl]-5H-pyrrolo[2,3-b]pyrazine-7-carboxamide] | 243 min
4 | C=CC(=O)N1CCC(Nc2cnc3[nH]cc(C(=O)NCC4CC(F)(F)C4)c3n2)CC1 [Example 238, 2-[(1-acryloylpiperidin-4-yl)amino]-N-[(3,3-difluorocyclobutyl)methyl]-5H-pyrrolo[2,3-b]pyrazine-7-carboxamide] | 260 min
5 | C=CC(=O)N1CCC(Nc2cnc3[nH]cc(C(=O)NCCCC(F)(F)F)c3n2)CC1 [Example 240, 2-[(1-acryloylpiperidin-4-yl)amino]-N-(4,4,4-trifluorobutyl)-5H-pyrrolo[2,3-b]pyrazine-7-carboxamide] | 235 min
6 | C=CC(=O)N1CCC(Nc2cnc3[nH]cc(C(=O)NC[C@H](C)CC(F)(F)F)c3n2)CC1 [Example 241, 2-[(1-acryloylpiperidin-4-yl)amino]-N-[(2R)-4,4,4-trifluoro-2-methylbutyl]-5H-pyrrolo[2,3-b]pyrazine-7-carboxamide] | > 310 min
7 | C=CC(=O)N1CCC(Nc2cnc3[nH]cc(C(=O)NC4CC(F)C4)c3n2)CC1 (stereo not drawn) [Example 243, 2-[(1-acryloylpiperidin-4-yl)amino]-N-(3-fluorocyclobutyl)-5H-pyrrolo[2,3-b]pyrazine-7-carboxamide] | > 360 min
8 | C=CC(=O)N1CCC(Nc2cnc3[nH]cc(C(=O)N[C@H]4CC[C@@H](F)C4)c3n2)CC1 [Example 244, 2-[(1-acryloylpiperidin-4-yl)amino]-N-[(1S,3R)-3-fluorocyclopentyl]-5H-pyrrolo[2,3-b]pyrazine-7-carboxamide] | 284 min
9 | C=CC(=O)N1CCC(Nc2cnc3[nH]cc(C(=O)NCCC(F)(F)F)c3n2)CC1 [Example 246, 2-[(1-acryloylpiperidin-4-yl)amino]-N-(3,3,3-trifluoropropyl)-5H-pyrrolo[2,3-b]pyrazine-7-carboxamide] | > 360 min
10 | C=CC(=O)N1CCC(Nc2cnc3[nH]cc(C(=O)N[C@H]4CC[C@H](F)C4)c3n2)CC1 [Example 247, 2-[(1-acryloylpiperidin-4-yl)amino]-N-[(1S,3S)-3-fluorocyclopentyl]-5H-pyrrolo[2,3-b]pyrazine-7-carboxamide] | 272 min
11 | C=CC(=O)N1CCC(Nc2cnc3[nH]cc(C(=O)N[C@@H]4CCC[C@@H]4F)c3n2)CC1 [Example 251, 2-[(1-acryloylpiperidin-4-yl)amino]-N-[(1R,2S)-2-fluorocyclopentyl]-5H-pyrrolo[2,3-b]pyrazine-7-carboxamide] | 201 min
12 | C=CC(=O)N1CCC(Nc2cnc3[nH]cc(C(=O)NCC(C)CC(F)(F)F)c3n2)CC1 (stereo not drawn) [Example 253, 2-[(1-acryloylpiperidin-4-yl)amino]-N-(4,4,4-trifluoro-2-methylbutyl)-5H-pyrrolo[2,3-b]pyrazine-7-carboxamide] | > 360 min
13 | C=CC(=O)N1CCC(Nc2cnc3[nH]cc(C(=O)NC4CCCCC4(F)F)c3n2)CC1 (stereo not drawn) [Example 256, 2-[(1-acryloylpiperidin-4-yl)amino]-N-(2,2-difluorocyclohexyl)-5H-pyrrolo[2,3-b]pyrazine-7-carboxamide] | 239 min
14 | C=CC(=O)N1CCC(Nc2cnc3[nH]cc(C(=O)NC4CCC(F)(F)C4)c3n2)CC1 (stereo not drawn) [Example 259, 2-[(1-acryloylpiperidin-4-yl)amino]-N-(3,3-difluorocyclopentyl)-5H-pyrrolo[2,3-b]pyrazine-7-carboxamide] | > 360 min
15 | C=CC(=O)N1CCC(Nc2cnc3[nH]cc(C(=O)NCCC#N)c3n2)CC1 [Example 261, 2-[(1-acryloylpiperidin-4-yl)amino]-N-(2-cyanoethyl)-5H-pyrrolo[2,3-b]pyrazine-7-carboxamide] | > 360 min
16 | C=CC(=O)N1CCC(Nc2cnc3[nH]cc(C(=O)NC(C)(C)C)c3n2)CC1 [Example 266, 2-[(1-acryloylpiperidin-4-yl)amino]-N-tert-butyl-5H-pyrrolo[2,3-b]pyrazine-7-carboxamide] | 336 min
17 | C=CC(=O)N1CCC(Nc2cnc3[nH]cc(C(=O)N[C@@H](C)CCC)c3n2)CC1 [Example 267, 2-[(1-acryloylpiperidin-4-yl)amino]-N-[(2S)-pentan-2-yl]-5H-pyrrolo[2,3-b]pyrazine-7-carboxamide] | 224 min
18 | C=CC(=O)N1CCC(Nc2cnc3[nH]cc(C(=O)N[C@H](C)COC)c3n2)CC1 [Example 268, 2-[(1-acryloylpiperidin-4-yl)amino]-N-[(2R)-1-methoxypropan-2-yl]-5H-pyrrolo[2,3-b]pyrazine-7-carboxamide] | 288 min

Row | SMILES | half-life at 1 μM
19 | C=CC(=O)N1CCC(Nc2cnc3[nH]cc(C(=O)NCCCC)c3n2)CC1 [Example 269, 2-[(1-acryloylpiperidin-4-yl)amino]-N-butyl-5H-pyrrolo[2,3-b]pyrazine-7-carboxamide] | 256 min
20 | C=CC(=O)N1CCC(Nc2cnc3[nH]cc(C(=O)NCC4CCCC4)c3n2)CC1 [Example 270, 2-[(1-acryloylpiperidin-4-yl)amino]-N-(cyclopentylmethyl)-5H-pyrrolo[2,3-b]pyrazine-7-carboxamide] | 232 min
21 | C=CC(=O)N1CCC(Nc2cnc3[nH]cc(C(=O)NCC(C)(C)C)c3n2)CC1 [Example 271, 2-[(1-acryloylpiperidin-4-yl)amino]-N-(2,2-dimethylpropyl)-5H-pyrrolo[2,3-b]pyrazine-7-carboxamide] | 137 min
22 | C=CC(=O)N1CCC(Nc2cnc3[nH]cc(C(=O)NCC(C)C)c3n2)CC1 [Example 272, 2-[(1-acryloylpiperidin-4-yl)amino]-N-(2-methylpropyl)-5H-pyrrolo[2,3-b]pyrazine-7-carboxamide] | 217 min
23 | C=CC(=O)N1CCC(Nc2cnc3[nH]cc(C(=O)NCC(F)(F)F)c3n2)CC1 [Example 273, 2-[(1-acryloylpiperidin-4-yl)amino]-N-(2,2,2-trifluoroethyl)-5H-pyrrolo[2,3-b]pyrazine-7-carboxamide] | 218 min
24 | C=CC(=O)N1CCC(Nc2cnc3[nH]cc(C(=O)N[C@H](C)CCC)c3n2)CC1 [Example 274, 2-[(1-acryloylpiperidin-4-yl)amino]-N-[(2R)-pentan-2-yl]-5H-pyrrolo[2,3-b]pyrazine-7-carboxamide] | > 360 min
25 | C=CC(=O)N1CCC(Nc2cnc3[nH]cc(C(=O)NCCOC)c3n2)CC1 [Example 275, 2-[(1-acryloylpiperidin-4-yl)amino]-N-(2-methoxyethyl)-5H-pyrrolo[2,3-b]pyrazine-7-carboxamide] | > 360 min
26 | C=CC(=O)N1CCC(Nc2cnc3[nH]cc(C(=O)NC(C)(C)CC)c3n2)CC1 [Example 276, 2-[(1-acryloylpiperidin-4-yl)amino]-N-(2-methylbutan-2-yl)-5H-pyrrolo[2,3-b]pyrazine-7-carboxamide] | 225 min
27 | C=CC(=O)N1CCC(Nc2cnc3[nH]cc(C(=O)N[C@@H](C)COC)c3n2)CC1 [Example 277, 2-[(1-acryloylpiperidin-4-yl)amino]-N-[(2S)-1-methoxypropan-2-yl]-5H-pyrrolo[2,3-b]pyrazine-7-carboxamide] | > 360 min
28 | C=CC(=O)N1CCC(Nc2cnc3[nH]cc(C(=O)NC4CCCCC4)c3n2)CC1 [Example 278, 2-[(1-acryloylpiperidin-4-yl)amino]-N-cyclohexyl-5H-pyrrolo[2,3-b]pyrazine-7-carboxamide] | 236 min
29 | C=CC(=O)N1CCC(Nc2cnc3[nH]cc(C(=O)NC4CCC4)c3n2)CC1 [Example 280, 2-[(1-acryloylpiperidin-4-yl)amino]-N-cyclobutyl-5H-pyrrolo[2,3-b]pyrazine-7-carboxamide] | > 360 min
30 | C=CC(=O)N1CCC(Nc2cnc3[nH]cc(C(=O)NC45CC(C4)C5)c3n2)CC1 [Example 281, 2-[(1-acryloylpiperidin-4-yl)amino]-N-(bicyclo[1.1.1]pent-1-yl)-5H-pyrrolo[2,3-b]pyrazine-7-carboxamide] | 346 min
31 | C=CC(=O)N1CCC(Nc2cnc3[nH]cc(C(=O)NCC(C)(F)F)c3n2)CC1 [Example 282, 2-[(1-acryloylpiperidin-4-yl)amino]-N-(2,2-difluoropropyl)-5H-pyrrolo[2,3-b]pyrazine-7-carboxamide] | 243 min
32 | C=CC(=O)N1CCC(Nc2cnc3[nH]cc(C(=O)NC4CCCC4)c3n2)CC1 [Example 283, 2-[(1-acryloylpiperidin-4-yl)amino]-N-cyclopentyl-5H-pyrrolo[2,3-b]pyrazine-7-carboxamide] | > 360 min
33 | C=CC(=O)N1CCC(Nc2cnc3[nH]cc(C(=O)N[C@@H](C)CC)c3n2)CC1 [Example 285, 2-[(1-acryloylpiperidin-4-yl)amino]-N-[(2S)-butan-2-yl]-5H-pyrrolo[2,3-b]pyrazine-7-carboxamide] | 345 min
34 | C=CC(=O)N1CCC(Nc2cnc3[nH]cc(C(=O)NC(C)C4CC4)c3n2)CC1 (stereo not drawn) [Example 288, 2-[(1-acryloylpiperidin-4-yl)amino]-N-(1-cyclopropylethyl)-5H-pyrrolo[2,3-b]pyrazine-7-carboxamide] | 220 min
35 | C=CC(=O)N1CCC(Nc2cnc3[nH]cc(C(=O)N[C@H](C)CC)c3n2)CC1 [Example 289, 2-[(1-acryloylpiperidin-4-yl)amino]-N-[(2R)-butan-2-yl]-5H-pyrrolo[2,3-b]pyrazine-7-carboxamide] | > 360 min
36 | C=CC(=O)N1CC[C@@H](Nc2cnc3[nH]cc(C(=O)NC(C)C)c3n2)[C@H](F)C1 [Example 291, 2-{[(3R,4R)-1-acryloyl-3-fluoropiperidin-4-yl]amino}-N-(propan-2-yl)-5H-pyrrolo[2,3-b]pyrazine-7-carboxamide] | 196 min
